These results are taken from PubChem BioAssay (NCI).

Structures are written as SMILES. Values joined by “and” are separate entries in the source; they are usually repeats but may differ in a detail not shown here. Equal values may be shown once.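 Cells were grown in 96-well plates and exposed to each compound for 48 hours at five concentrations; endpoints were interpolated linearly between bracketing concentrations, or set to the highest concentration if not reached. The concentration for 50% growth inhibition is given as GI50. TGI: total growth inhibition.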

Test systems include NCI-H522 lung; M14 melanoma; HT29 colon; EKVX NSCLC; SNB-75 CNS; HS 578T breast; OVCAR-8 ovarian; IGROV1 ovarian; SF-539 CNS; SK-MEL-2 melanoma.
What all share (experiment): DTP human tumour cell line panel, 48 h

For the molecule `COC1/C=C/O[C@@]2(C)Oc3c(C)c(O)c4c(O)c(cc(O)c4c3C2=O)NC(=O)/C(C)=C\C=C\[C@H](C)C(O)[C@@H](C)[C@@H](O)[C@@H](C)[C@H](OC(C)=O)[C@@H]1C` (stereo partly drawn), the GI50 with NCI-H522 lung is 2.72 µM; in the assay on M14 melanoma it was 13.8 µM; with HT29 colon it was 11.6 µM; with EKVX NSCLC, 14.2 µM and 58.6 µM; in the assay with SNB-75 CNS, 18.1 µM; in the assay with HS 578T breast, 24.2 µM. Besides, the results for the GI50 in the assay on OVCAR-8 ovarian, in the assay on IGROV1 ovarian and in the assay on SF-539 CNS were 14.9 µM, 16 µM and 3.41 µM, respectively. In addition, the TGI in the assay with NCI-H522 lung was 11.2 µM and 20.5 µM; in the assay on M14 melanoma, 27 µM and 35.7 µM; with HT29 colon, 24.3 µM and 34.5 µM; with EKVX NSCLC, 27.8 µM and 136 µM; in the assay with SNB-75 CNS, 32.3 µM and 119 µM; in the assay on HS 578T breast, 64.6 µM and 114 µM. Besides, the TGI was 29.8 µM and 57.4 µM in the assay on OVCAR-8 ovarian; 29.5 µM and 56.3 µM in the assay on IGROV1 ovarian; 12.5 µM and 69.3 µM in the assay on SF-539 CNS; 30 µM and 45.2 µM with SK-MEL-2 melanoma.
For the molecule `O=C1Nc2ccc(Cl)cc2/C1=C\c1c(-c2ccc(F)cc2)nc2ccccn12`, the GI50 was 2.17 µM with NCI-H522 lung; 3.02 µM in the assay on M14 melanoma; 2.33 µM in the assay with HT29 colon; 3.08 µM in the assay on EKVX NSCLC; 2.08 µM in the assay on SNB-75 CNS; 2.2 µM with HS 578T breast. For the same molecule, the GI50 with OVCAR-8 ovarian was 2.28 µM; in the assay on IGROV1 ovarian it was 3.06 µM; in the assay with SF-539 CNS, 2.09 µM; in the assay with SK-MEL-2 melanoma, 2.66 µM. For the same molecule, the TGI was determined as 5.42 µM in the assay with NCI-H522 lung; 8.62 µM with M14 melanoma; 5.41 µM with HT29 colon; 58.1 µM with EKVX NSCLC; 7.97 µM in the assay on SNB-75 CNS; 8.37 µM in the assay on HS 578T breast. Further, the TGI in the assay on OVCAR-8 ovarian was determined as 5.99 µM; in the assay with IGROV1 ovarian, 8.58 µM; in the assay with SF-539 CNS, 5 µM; in the assay on SK-MEL-2 melanoma it was 6.17 µM.
Regarding `COc1ccc(C2C3=C(NC(=O)C2C#N)c2ccc4ccccc4c2OCC3)cc1` (stereo not drawn), the GI50 in the assay with NCI-H522 lung was 74.5 µM; in the assay with M14 melanoma it was 90.2 µM; in the assay with HT29 colon it was over 100 µM; in the assay with EKVX NSCLC, 15.8 µM; with SNB-75 CNS it was 21.9 µM; in the assay with HS 578T breast it was 22.6 µM. The GI50 was 21.4 µM with OVCAR-8 ovarian, over 100 µM in the assay on IGROV1 ovarian, 12.9 µM with SF-539 CNS and over 100 µM in the assay on SK-MEL-2 melanoma. For the same molecule, the TGI with NCI-H522 lung was over 100 µM; with M14 melanoma it was over 100 µM; in the assay with HT29 colon, over 100 µM; in the assay with EKVX NSCLC, 50.1 µM; in the assay with SNB-75 CNS, 69.1 µM; in the assay on HS 578T breast, 56.6 µM. For the same molecule, the TGI was 45.3 µM with OVCAR-8 ovarian, over 100 µM in the assay with IGROV1 ovarian, 28 µM in the assay on SF-539 CNS and over 100 µM in the assay with SK-MEL-2 melanoma.
With `COc1ccc(-c2cc3c4c(nc5ccccc5c4c2)CC(c2cc(OC)c(OC)c(OC)c2)O3)cc1` (stereo not drawn), the GI50 in the assay with NCI-H522 lung is 2.63 µM; in the assay on M14 melanoma, 2.96 µM; in the assay with HT29 colon, 3.07 µM; with EKVX NSCLC it was 5.01 µM; in the assay with SNB-75 CNS, 1.13 µM; in the assay with HS 578T breast, 1.24 µM. Further, the GI50 was 2.71 µM in the assay on OVCAR-8 ovarian, 2.66 µM with IGROV1 ovarian, 1.44 µM with SF-539 CNS and 3.44 µM in the assay on SK-MEL-2 melanoma. In addition, the TGI in the assay on NCI-H522 lung is 13.9 µM; in the assay on M14 melanoma, 28.7 µM; in the assay with HT29 colon, over 100 µM; with EKVX NSCLC, over 100 µM; in the assay with SNB-75 CNS it was 3.1 µM; with HS 578T breast, 6.81 µM. Also, the TGI in the assay on OVCAR-8 ovarian is over 100 µM; with IGROV1 ovarian it was 12.6 µM; in the assay on SF-539 CNS it was 2.95 µM; in the assay with SK-MEL-2 melanoma, 14.9 µM.
`Cc1nc2sc(C(=O)Nc3cccc4ccccc34)c(N)c2cc1C(C)O` (stereo not drawn): the GI50 in the assay on NCI-H522 lung is 0.207 µM; in the assay with M14 melanoma, 0.176 µM; with HT29 colon, 0.191 µM; in the assay with EKVX NSCLC, 0.446 µM; in the assay with SNB-75 CNS, 0.119 µM; in the assay with HS 578T breast, 0.121 µM. Besides, the GI50 is 0.368 µM in the assay with OVCAR-8 ovarian, 0.308 µM with IGROV1 ovarian, 0.155 µM in the assay on SF-539 CNS and 0.219 µM in the assay on SK-MEL-2 melanoma. Besides, the TGI was over 22.4 µM in the assay on NCI-H522 lung; over 50 µM in the assay on M14 melanoma; 14.9 µM in the assay on HT29 colon; over 50 µM in the assay with EKVX NSCLC; over 50 µM in the assay on SNB-75 CNS; over 50 µM with HS 578T breast. The TGI in the assay on OVCAR-8 ovarian is over 50 µM; in the assay on IGROV1 ovarian, over 50 µM; in the assay with SF-539 CNS it was 0.968 µM; with SK-MEL-2 melanoma, over 50 µM.
Turning to `COc1ccc2c(c1)O/C(=C\c1cccc(OCC(=O)Nc3nc4ccccc4s3)c1)C2=O`, the GI50 in the assay on NCI-H522 lung was 0.718 µM; in the assay with M14 melanoma, 36.3 µM; in the assay with HT29 colon, over 58.7 µM; in the assay on EKVX NSCLC, 29 µM; in the assay with HS 578T breast, 13.8 µM; in the assay with OVCAR-8 ovarian, 12.6 µM. Moreover, the values for the GI50 in the assay with IGROV1 ovarian, with SF-539 CNS and with SK-MEL-2 melanoma were 0.121 µM, 24.7 µM and 11.5 µM, respectively. Moreover, the TGI in the assay with NCI-H522 lung is 2.74 µM; in the assay with M14 melanoma, over 100 µM; with HT29 colon, over 100 µM; in the assay with EKVX NSCLC it was over 100 µM; in the assay with SNB-75 CNS, over 24 µM; with HS 578T breast, 70.1 µM. Moreover, the TGI is over 100 µM with OVCAR-8 ovarian, 0.303 µM with IGROV1 ovarian, over 84.5 µM in the assay on SF-539 CNS and 33.3 µM in the assay on SK-MEL-2 melanoma.
Regarding `Cc1cc(N(CCCl)CCCl)ccc1C=Nc1cccnc1`, the GI50 is 14.3 µM in the assay with NCI-H522 lung; 22.5 µM in the assay on M14 melanoma; over 79 µM in the assay on HT29 colon; 30 µM with EKVX NSCLC; 11.5 µM in the assay with SNB-75 CNS; 37.7 µM in the assay on HS 578T breast. The GI50 in the assay with OVCAR-8 ovarian was 28.3 µM; in the assay with IGROV1 ovarian, 4.97 µM; with SF-539 CNS, 4.81 µM; in the assay with SK-MEL-2 melanoma it was 7.57 µM. The TGI was 38.1 µM with NCI-H522 lung; over 100 µM with M14 melanoma; over 100 µM in the assay with HT29 colon; 98.9 µM with EKVX NSCLC; over 100 µM in the assay with SNB-75 CNS; over 100 µM with HS 578T breast. The TGI in the assay on OVCAR-8 ovarian was over 100 µM; in the assay with IGROV1 ovarian, over 84.1 µM; with SF-539 CNS, over 100 µM; in the assay with SK-MEL-2 melanoma it was over 50.1 µM.
Consider `O=C(NNc1nc2cc(F)ccc2n2c(CN3CCOCC3)ccc12)c1ccccc1`, for which the GI50 with NCI-H522 lung is 0.369 µM; in the assay on M14 melanoma, 0.173 µM; in the assay on HT29 colon, 0.449 µM; with EKVX NSCLC it was 0.142 µM; in the assay with SNB-75 CNS, 0.3 µM; in the assay on HS 578T breast, 1.51 µM. Further, the 50% growth inhibitory concentration (GI50) is 0.321 µM in the assay with OVCAR-8 ovarian, 0.139 µM with IGROV1 ovarian, 0.273 µM with SF-539 CNS and 1.04 µM in the assay with SK-MEL-2 melanoma. The TGI was determined as 3.52 µM in the assay with NCI-H522 lung; 1.26 µM in the assay with M14 melanoma; 7.48 µM with HT29 colon; 1.7 µM in the assay on EKVX NSCLC; 3.63 µM with SNB-75 CNS; 8.05 µM in the assay on HS 578T breast. The TGI in the assay on OVCAR-8 ovarian is 7.66 µM; in the assay with IGROV1 ovarian, 1.47 µM; in the assay with SF-539 CNS, 1.39 µM; in the assay on SK-MEL-2 melanoma it was 8.06 µM.
On to `Cc1ccc(NS(=O)(=O)c2ccc(-c3cnc(C4CC4)o3)cc2)cc1`, for which the GI50 in the assay with NCI-H522 lung was 2.43 µM; in the assay with M14 melanoma, 1.56 µM; with HT29 colon it was 2.34 µM; in the assay with EKVX NSCLC it was 4.24 µM; with SNB-75 CNS, 1.13 µM; in the assay with HS 578T breast, 2.71 µM. The GI50 with OVCAR-8 ovarian is 5.24 µM; in the assay with IGROV1 ovarian it was 3.78 µM; in the assay with SF-539 CNS, 3.32 µM; with SK-MEL-2 melanoma it was 5.06 µM. The TGI in the assay with NCI-H522 lung was found to be 17.4 µM; in the assay with M14 melanoma, 11.7 µM; in the assay with HT29 colon, 11 µM; in the assay on EKVX NSCLC, 19.9 µM; with SNB-75 CNS, 4.25 µM; with HS 578T breast, 13.5 µM. Besides, the TGI came out at 24.3 µM in the assay with OVCAR-8 ovarian, 17.3 µM with IGROV1 ovarian, 13 µM with SF-539 CNS and 18.8 µM with SK-MEL-2 melanoma.
Take `Brc1c[n+](Cc2ccc3ccccc3c2)cn1Cc1ccc2ccccc2c1`: the GI50 in the assay on NCI-H522 lung is 1.53 µM; in the assay with M14 melanoma it was 1.4 µM; in the assay with HT29 colon, 1.19 µM; in the assay with EKVX NSCLC, 9.93 µM; in the assay on SNB-75 CNS, 1.34 µM; with HS 578T breast, 1.92 µM. For the same molecule, the GI50 in the assay on OVCAR-8 ovarian was 1.89 µM; in the assay on IGROV1 ovarian, 0.676 µM; in the assay on SF-539 CNS it was 1.56 µM; with SK-MEL-2 melanoma it was 1.81 µM. Also, the TGI with NCI-H522 lung was found to be 3.85 µM; in the assay with M14 melanoma it was 2.92 µM; in the assay on HT29 colon it was 3.35 µM; in the assay with EKVX NSCLC, 25 µM; in the assay with SNB-75 CNS, 3.03 µM; in the assay on HS 578T breast it was 4.84 µM. The concentration for total growth inhibition (TGI) in the assay with OVCAR-8 ovarian was 4.55 µM; with IGROV1 ovarian, 2.08 µM; in the assay on SF-539 CNS, 3.04 µM; in the assay on SK-MEL-2 melanoma it was 3.9 µM.
